# In patent US8273774B2, “Phenoxypyridinylamide compounds” (AstraZeneca AB, priority 2008, dated 2012):
# Molecular target: recombinant Human Phosphodiesterase B2 (PDE4B2) (Homo sapiens, UniProt Q07343)
# Assay: Human Phosphodiesterase B2 Radiometric Assay
# Type: biochemical
# Settings: 0.1 μg/mL recombinant PDE4B2; preincubated at 30 C for 30 min; [3H]cyclic AMP 8 nM, stopped after 20 min; yttrium silicate SPA beads; read-out: PDE4B2 pIC50 (converted)
# Method: Human Phosphodiesterase B2 Radiometric Assay
# The assay uses recombinant Human Phosphodiesterase B2 (PDE4B2) produced in house (PrAZL0163), stored at −20° C. This assay is based on the observation that 5′AMP, the product of the reaction catalysed by PDE4, binds preferentially to yttrium silicate SPA beads (Amersham Biosciences, UK) compared to the substrate, cAMP. Compounds at the appropriate concentration were preincubated at 30 C for 30 min with an assay buffer containing 50 mM HEPES (pH 7.5), 8.3 mM MgCl2, 1.7 mM EGTA, 0.01% (w/v) Brij®35 and 0.1 μg/mL recombinant PDE4B2. The reaction was started by the addition of [3H]cyclic AMP to give a final concentration of 8 nM, and was stopped 20 min after the addition of the substrate by the addition of yttrium silicate SPA beads containing 18 mM Zn SO4. Bound […] was measured using a Topcount NXT (Packard Bioscience, UK). pIC50 values (presented in Table 2) were determined using Xlfit3 curve fitting, using model 205.
# Sequence of recombinant Human Phosphodiesterase B2 (PDE4B2) (Q07343 1-564 isoform Q07343-2): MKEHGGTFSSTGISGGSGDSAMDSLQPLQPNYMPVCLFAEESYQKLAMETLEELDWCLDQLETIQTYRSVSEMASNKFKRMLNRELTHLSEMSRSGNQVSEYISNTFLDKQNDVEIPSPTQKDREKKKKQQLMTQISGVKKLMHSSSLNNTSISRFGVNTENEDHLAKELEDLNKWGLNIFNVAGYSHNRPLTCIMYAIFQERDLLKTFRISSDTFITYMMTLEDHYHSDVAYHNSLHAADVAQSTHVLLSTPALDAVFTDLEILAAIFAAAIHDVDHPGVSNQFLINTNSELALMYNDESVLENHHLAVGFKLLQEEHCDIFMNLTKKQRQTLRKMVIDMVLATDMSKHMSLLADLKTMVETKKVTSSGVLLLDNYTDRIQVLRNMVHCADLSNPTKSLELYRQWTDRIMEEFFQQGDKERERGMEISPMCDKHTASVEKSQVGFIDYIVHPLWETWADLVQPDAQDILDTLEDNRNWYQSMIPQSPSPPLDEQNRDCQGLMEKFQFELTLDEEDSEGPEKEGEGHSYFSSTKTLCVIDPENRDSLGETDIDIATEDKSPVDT
row,SMILES,IC50
1,"O=C(N[C@H]1CC[C@@H](NC(=O)c2cc(F)cnc2Oc2cccc(-c3ccc(CCN4CCNCC4)cc3)c2)CC1)c1cn2cc(F)ccc2n1 [Example 117, 6-fluoro-N-((1s,4s)-4-(5-fluoro-2-(4′-(2-(piperazin-1-yl)ethyl)biphenyl-3-yloxy)nicotinamido)cyclohexyl)imidazo[1,2-a]pyridine-2-carboxamide]",0.1 nM
2,"C[C@@H]1CN(CCCc2ccc(-c3cccc(Oc4ncc(F)cc4C(=O)N[C@H]4CC[C@@H](NC(=O)c5nc(CO)cs5)CC4)c3)cc2)C[C@H](C)N1 [Example 150, N-((1s,4s)-4-(2-(4′-(3-((3S,5R)-3,5-dimethylpiperazin-1-yl)propyl)biphenyl-3-yloxy)-5-fluoronicotinamido)cyclohexyl)-4-(hydroxymethyl)thiazole-2-carboxamide]",0.0794 nM
3,"C[C@@H]1CN(Cc2cc(-c3cccc(Oc4ncc(F)cc4C(=O)N[C@H]4CC[C@@H](NC(=O)c5cccc6[nH]cnc56)CC4)c3)ccc2O)C[C@H](C)N1 [Example 94, N-((1s,4s)-4-(2-(3′-(((3S,5R)-3,5-dimethylpiperazin-1-yl)methyl)-4′-hydroxybiphenyl-3-yloxy)-5-fluoronicotinamido)cyclohexyl)-1H-benzo[d]imidazole-4-carboxamide]",0.0631 nM
4,"O=C(N[C@H]1CC[C@@H](NC(=O)c2cccc3cccnc23)CC1)c1cc(F)cnc1Oc1cccc(-c2ccc(CCCNCCCO)cc2)c1 [Example 161, N-((1s,4s)-4-(5-Fluoro-2-(4′-(3-(3-hydroxypropylamino)propyl)biphenyl-3-yloxy)nicotinamido)cyclohexyl)quinoline-8-carboxamide]",0.0126 nM
5,"Cc1cc(C)n2ncc(C(=O)N[C@H]3CC[C@@H](NC(=O)c4cc(F)cnc4Oc4cccc(-c5ccc(CN6CCN(CC(=O)NC(C)C)CC6)cc5CN5CCOCC5)c4)CC3)c2n1 [Example 178, N-((1s,4s)-4-(5-Fluoro-2-(4′-((4-(2-(isopropylamino)-2-oxoethyl)piperazin-1-yl)methyl)-2′-(morpholinomethyl)biphenyl-3-yloxy)nicotinamido)cyclohexyl)-5,7-dimethylpyrazolo[1,5-a]pyrimidine-3-carboxamide]",0.0398 nM
6,"Cc1cc(C(=O)N[C@H]2CC[C@@H](NC(=O)c3cc(F)cnc3Oc3cccc(-c4ccc(CCCN5C[C@@H](C)N[C@@H](C)C5)cc4)c3)CC2)[nH]n1 [Example 156, 2-(4′-(3-((3S,5R)-3,5-Dimethylpiperazin-1-yl)propyl)biphenyl-3-yloxy)-5-fluoro-N-((1s,4s)-4-(3-methyl-1H-pyrazole-5-carboxamido)cyclohexyl)nicotinamide]",0.126 nM
7,"C[C@@H]1CN(Cc2ccc(-c3cccc(Oc4ncc(F)cc4C(=O)N[C@H]4CC[C@@H](NC(=O)c5cn6cc(F)ccc6n5)CC4)c3)c(CN3CCOCC3)c2)C[C@H](C)N1 [Example 122, N-((1s,4s)-4-(2-(4′-(((3S,5R)-3,5-dimethylpiperazin-1-yl)methyl)-2′-(morpholinomethyl)biphenyl-3-yloxy)-5-fluoronicotinamido)cyclohexyl)-6-fluoroimidazo[1,2-a]pyridine-2-carboxamide]",0.0398 nM
8,"O=C(N[C@H]1CC[C@@H](NC(=O)c2cc(F)cnc2Oc2cccc(-c3ccc(CCCN4CCCNCC4)cc3)c2)CC1)c1cc2n(n1)CCCC2 [Example 127, N-((1s,4s)-4-(2-(4′-(3-(1,4-diazepan-1-yl)propyl)biphenyl-3-yloxy)-5-fluoronicotinamido)cyclohexyl)-4,5,6,7-tetrahydropyrazolo[1,5-a]pyridine-2-carboxamide]",0.0794 nM
9,"C[C@@H]1CN(Cc2ccc(-c3cccc(Oc4ncc(F)cc4C(=O)N[C@H]4CC[C@@H](NC(=O)c5cc(C(F)(F)F)n(C)n5)CC4)c3)c(CN3CCSCC3)c2)C[C@H](C)N1 [Example 191, 2-(4′-(((3S,5R)-3,5-dimethylpiperazin-1-yl)methyl)-2′-(thiomorpholinomethyl)biphenyl-3-yloxy)-5-fluoro-N-((1s,4s)-4-(1-methyl-5-(trifluoromethyl)-1H-pyrazole-3-carboxamido)cyclo-hexyl)nicotinamide]",0.02 nM
10,"Cc1ccc(O)c(C(=O)N[C@H]2CC[C@@H](NC(=O)c3cc(F)cnc3Oc3cccc(-c4ccc(O)c(CN5C[C@@H](C)N[C@@H](C)C5)c4)c3)CC2)c1 [Example 95, 2-(3′-(((3S,5R)-3,5-dimethylpiperazin-1-yl)methyl)-4′-hydroxybiphenyl-3-yloxy)-5-fluoro-N-((1s,4s)-4-(2-hydroxy-5-methylbenzamido)cyclohexyl)nicotinamide]",0.2 nM

# Continued, values first:
row,IC50,SMILES
1,0.0631 nM,"Cc1nc(C(=O)N[C@H]2CC[C@@H](NC(=O)c3cc(F)cnc3Oc3cccc(-c4ccc(CN5C[C@@H](C)N[C@@H](C)C5)cc4)c3)CC2)cs1 [Example 54, N-((1s,4s)-4-(2-(4′-(((3S,5R)-3,5-dimethylpiperazin-1-yl)methyl)biphenyl-3-yloxy)-5-fluoronicotinamido)cyclohexyl)-2-methylthiazole-4-carboxamide]"
2,0.0316 nM,"Cc1ccc(O)c(C(=O)N[C@H]2CC[C@@H](NC(=O)c3cc(F)cnc3Oc3cccc(-c4ccc(O)cc4CN4CCCOCC4)c3)CC2)c1 [Example 16, 2-(2′-((1,4-oxazepan-4-yl)methyl)-4′-hydroxybiphenyl-3-yloxy)-5-fluoro-N-((1s,4s)-4-(2-hydroxy-5-methylbenzamido)cyclohexyl)nicotinamide]"
3,0.0631 nM,"Cc1cc(C(=O)N[C@H]2CC[C@@H](NC(=O)c3cc(F)cnc3Oc3cccc(-c4ccc(O)c(CN5CCN(C(C)C)CC5)c4)c3)CC2)nn1C [Example 77, N-((1s,4s)-4-(1,5-dimethyl-1H-pyrazole-3-carboxamido)cyclohexyl)-5-fluoro-2-(4′-hydroxy-3′-((4-isopropylpiperazin-1-yl)methyl)biphenyl-3-yloxy)nicotinamide]"
4,1.58 nM,"CN(C)C1(C(=O)NC2CCC(NC(=O)c3cc(F)cnc3Oc3cccc(-c4ccc(O)cc4CN4CCOCC4)c3)CC2)CC1 (stereo not shown) [Example 17, N-((1s,4s)-4-(1-(dimethylamino)cyclopropanecarboxamido)cyclohexyl)-5-fluoro-2-(4′-hydroxy-2′-(morpholinomethyl)biphenyl-3-yloxy)nicotinamide]"
5,0.0501 nM,"Cc1nc(C(=O)N[C@H]2CC[C@@H](NC(=O)c3cc(F)cnc3Oc3cccc(-c4ccc(CCCN5CCCNCC5)cc4)c3)CC2)cs1 [Example 135, N-((1s,4s)-4-(2-(4′-(3-(1,4-diazepan-1-yl)propyl)biphenyl-3-yloxy)-5-fluoronicotinamido)cyclohexyl)-2-methylthiazole-4-carboxamide]"
6,0.0251 nM,"Cc1cc(C(=O)N[C@H]2CC[C@@H](NC(=O)c3cc(F)cnc3Oc3cccc(-c4ccc(CN5C[C@@H](C)N[C@@H](C)C5)cc4)c3)CC2)nn1C [Example 62, N-((1s,4s)-4-(1,5-dimethyl-1H-pyrazole-3-carboxamido)cyclohexyl)-2-(4′-(((3S,5R)-3,5-dimethylpiperazin-1-yl)methyl)biphenyl-3-yloxy)-5-fluoronicotinamide]"
7,0.0398 nM,"Cc1nc(C(=O)N[C@H]2CC[C@@H](NC(=O)c3cc(F)cnc3Oc3cccc(-c4ccc(O)cc4CN(C)CC(=O)N(C)C)c3)CC2)cs1 [Example 30, N-((1s,4s)-4-(2-(2′-(((2-(dimethylamino)-2-oxoethyl)(methyl)amino)methyl)-4′-hydroxybiphenyl-3-yloxy)-5-fluoronicotinamido)cyclohexyl)-2-methylthiazole-4-carboxamide]"
8,0.0501 nM,"Cc1cc(C(=O)N[C@H]2CC[C@@H](NC(=O)c3cc(F)cnc3Oc3cccc(-c4ccc(CCN5CCN(C)CC5)cc4)c3)CC2)nn1C [Example 167, N-((1s,4s)-4-(1,5-Dimethyl-1H-pyrazole-3-carboxamido)cyclohexyl)-5-fluoro-2-(4′-(2-(4-methylpiperazin-1-yl)ethyl)biphenyl-3-yloxy)nicotinamide]"
9,0.02 nM,"Cc1cc(C(=O)N[C@H]2CC[C@@H](NC(=O)c3cc(F)cnc3Oc3cccc(-c4cccc(CCCN5CCNCC5)c4)c3)CC2)nn1C [Example 108, N-((1s,4s)-4-(1,5-dimethyl-1H-pyrazole-3-carboxamido)cyclohexyl)-5-fluoro-2-(3′-(3-(piperazin-1-yl)propyl)biphenyl-3-yloxy)nicotinamide]"
10,0.0158 nM,"Cc1csc(C(=O)N[C@H]2CC[C@@H](NC(=O)c3cc(F)cnc3Oc3cccc(-c4ccc(O)cc4CN4CCOCC4)c3)CC2)n1 [Example 45, N-((1s,4s)-4-(5-fluoro-2-(4′-hydroxy-2′-(morpholinomethyl)biphenyl-3-yloxy)nicotinamido)cyclohexyl)-4-methylthiazole-2-carboxamide]"
11,0.0631 nM,"O=C(N[C@H]1CC[C@@H](NC(=O)c2cc(F)cnc2Oc2cccc(-c3ccc(O)cc3CN3CCOCC3)c2)CC1)c1csc(CO)n1 [Example 58, N-((1s,4s)-4-(5-fluoro-2-(4′-hydroxy-2′-(morpholinomethyl)biphenyl-3-yloxy)nicotinamido)cyclohexyl)-2-(hydroxymethyl)thiazole-4-carboxamide]"
12,0.02 nM,"Cc1cccc(C(=O)N[C@H]2CC[C@@H](NC(=O)c3cc(F)cnc3Oc3cccc(-c4ccc(O)cc4CN4CCCOCC4)c3)CC2)n1 [Example 14, N-((1s,4s)-4-(2-(2′-((1,4-oxazepan-4-yl)methyl)-4′-hydroxybiphenyl-3-yloxy)-5-fluoronicotinamido)cyclohexyl)-6-methylpicolinamide]"
